From ChEMBL document CHEMBL5726238, “Phenyl and pyridinyl substituted piperidines and piperazines as inhibitors of IDH1 mutants and their use in treating cancer” (2017)

The compounds below were run against Isocitrate dehydrogenase [NADP] cytoplasmic (Homo sapiens, UniProt O75874, R132H) (assay: Inhibition Assay: Assays were conducted in a volume of 76 μl assay buffer (150 mM NaCl, 10 mM MgCl2, 20 mM Tris pH 7.5, 0.03% bovine serum albumin) as follows in a standard 384-well plate: To 25 ul of substrate mix (8 uM NADPH, 2 mM aKG), 1 μl of test compound was added in DMSO. […] The reaction was incubated for 50 minutes at room temperature, then 25 μl of detection mix (30 μM resazurin, […]) was added and the mixture further incubated for 5 minutes at room temperature.).
Sequence of Isocitrate dehydrogenase [NADP] cytoplasmic (O75874 2-414 R132H limits assumed): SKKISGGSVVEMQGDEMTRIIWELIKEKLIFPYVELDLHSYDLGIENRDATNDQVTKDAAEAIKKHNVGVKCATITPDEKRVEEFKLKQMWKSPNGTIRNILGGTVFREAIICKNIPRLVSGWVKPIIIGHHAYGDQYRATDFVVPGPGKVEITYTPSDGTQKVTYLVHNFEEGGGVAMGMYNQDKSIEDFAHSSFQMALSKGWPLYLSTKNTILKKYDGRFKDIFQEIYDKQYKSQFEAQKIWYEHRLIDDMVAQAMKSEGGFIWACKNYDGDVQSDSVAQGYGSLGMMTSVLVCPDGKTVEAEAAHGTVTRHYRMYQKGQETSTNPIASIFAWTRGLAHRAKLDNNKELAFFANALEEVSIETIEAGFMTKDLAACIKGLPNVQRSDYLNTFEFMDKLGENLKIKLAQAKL

`COCCC(=O)N1CCN(c2nc(C3CC3)c3c(c2C#N)CN(S(C)(=O)=O)CC3)C[C@H]1C1CC1` and `C#CC(=O)N1CCc2c(C#N)c(N3CCN(C(=O)CCOC)[C@H](C4CC4)C3)nc(C3CC3)c2C1` cannot be ordered by IC50: < 500 nM for the first, < 500 nM for the second.

`C=CC(=O)N1CCc2c(C3CC3)nc(N3CCN(C(=O)C4CC4)[C@H](C4CC4)C3)c(C#N)c2C1` and `CC(C)[C@@H]1CN(c2nc(C3CC3)c3c(c2C#N)CC(C)(C)OC3)CCN1C(=O)CCC(=O)OCCO` cannot be ordered by IC50: < 500 nM for the first, < 500 nM for the second.

`CC(C)c1nc(N2CCN(C(=O)Cc3cccs3)CC2)c(C#N)c2c1COC(C)(C)C2` gave an IC50 of 1000 to 10000 nM.
